Where two headings read alike, the source gives them in different places.
What was measured:
[1] = system: Key Broadleaf Weed and Crop Species; assay: Post-Emergent Test II: postemergent herbicidal activity, visual rating after 14 d (Table 7); type: in vivo; conditions: post-emergence, 336 h; for pest or weed control at 35 g/ha: 35 g ai/ha; for pest or weed control at 70 g/ha: 70 g ai/ha; for pest or weed control at 140 g/ha: 140 g ai/ha
Method in brief: (§1)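 Scoring is visual, 0-100, at 14 d after application, comparing treated with untreated plants. Application: overhead track spray at 187 L/ha onto seedlings at 1-2 true leaves, in surfactant/crop-oil carrier.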

[2] = system: Key Grass and Sedge Weeds as well as Grass Crops; assay: Post-Emergent Test II: postemergent herbicidal activity, visual rating after 14 d (Table 8); type: in vivo; conditions: post-emergence, 336 h; for pest or weed control at 35 g/ha: 35 g ai/ha; for pest or weed control at 70 g/ha: 70 g ai/ha; for pest or weed control at 140 g/ha: 140 g ai/ha
Method in brief: as §1

[3] = ABUTH: velvetleaf (Abutilon theophrasti), read-out: Visual Growth Reduction (%) 14 Days After Application ABUTH
[4] = AMARE: redroot pigweed (Amaranthus retroflexus), read-out: Visual Growth Reduction (%) 14 Days After Application AMARE
[5] = BRSNN: oilseed rape, canola (Brassica napus), read-out: Visual Growth Reduction (%) 14 Days After Application BRSNN
[6] = CHEAL: lambsquarters (Chenopodium album), read-out: Visual Growth Reduction (%) 14 Days After Application CHEAL
[7] = EPHHL: wild poinsettia (Euphorbia heterophylla), read-out: Visual Growth Reduction (%) 14 Days After Application EPHHL
[8] = HELAN: sunflower (Helianthus annuus), read-out: Visual Growth Reduction (%) 14 Days After Application HELAN
[9] = barnyardgrass (Echinochloa crus-galli), read-out: Visual Growth Reduction (%) 14 Days After Application, ECHCG
[10] = giant foxtail (Setaria faberi), read-out: Visual Growth Reduction (%) 14 Days After Application, SETFA
[11] = maize, corn (Zea mays), read-out: Visual Growth Reduction (%) 14 Days After Application, ZEAMX
[12] = rice (Oryza sativa), read-out: Visual Growth Reduction (%) 14 Days After Application, ORYSA
[13] = wheat, spring (Triticum aestivum), read-out: Visual Growth Reduction (%) 14 Days After Application, TRZAS
[14] = yellow nutsedge (Cyperus esculentus), read-out: Visual Growth Reduction (%) 14 Days After Application, CYPES

COC(=O)c1nc(-c2ccc(F)c3c2OCO3)c(F)c(N)c1Cl [Compound 83]
pest or weed control at 35 g/ha [1, 3]: 85 to 94% | pest or weed control at 70 g/ha [1, 3]: 85 to 94% | pest or weed control at 140 g/ha [1, 3]: 95 to 100% | pest or weed control at 35 g/ha [1, 4]: 95 to 100% | pest or weed control at 70 g/ha [1, 4]: 95 to 100% | pest or weed control at 140 g/ha [1, 4]: 95 to 100% | pest or weed control at 35 g/ha [1, 5]: 30 to 44% | pest or weed control at 70 g/ha [1, 5]: 95 to 100% | pest or weed control at 140 g/ha [1, 5]: 95 to 100% | pest or weed control at 35 g/ha [1, 6]: 95 to 100% | pest or weed control at 70 g/ha [1, 6]: 95 to 100% | pest or weed control at 140 g/ha [1, 6]: 95 to 100% | pest or weed control at 35 g/ha [1, 7]: 0 to 29% | pest or weed control at 70 g/ha [1, 7]: 0 to 29% | pest or weed control at 140 g/ha [1, 7]: 0 to 29% | pest or weed control at 35 g/ha [1, 8]: 85 to 94% | pest or weed control at 70 g/ha [1, 8]: 95 to 100% | pest or weed control at 140 g/ha [1, 8]: 95 to 100% | pest or weed control at 35 g/ha [2, 9]: 0 to 29% | pest or weed control at 70 g/ha [2, 9]: 0 to 29% | pest or weed control at 140 g/ha [2, 9]: 0 to 29% | pest or weed control at 35 g/ha [2, 10]: 0 to 29% | pest or weed control at 70 g/ha [2, 10]: 0 to 29% | pest or weed control at 140 g/ha [2, 10]: 0 to 29% | pest or weed control at 35 g/ha [2, 11]: 0 to 29% | pest or weed control at 70 g/ha [2, 11]: 0 to 29% | pest or weed control at 140 g/ha [2, 11]: 0 to 29% | pest or weed control at 35 g/ha [2, 12]: 0 to 29% | pest or weed control at 70 g/ha [2, 12]: 0 to 29% | pest or weed control at 140 g/ha [2, 12]: 0 to 29% | pest or weed control at 35 g/ha [2, 13]: 0 to 29% | pest or weed control at 70 g/ha [2, 13]: 0 to 29% | pest or weed control at 140 g/ha [2, 13]: 0 to 29% | pest or weed control at 35 g/ha [2, 14]: 0 to 29% | pest or weed control at 70 g/ha [2, 14]: 0 to 29% | pest or weed control at 140 g/ha [2, 14]: 0 to 29%
